Values quoted from earlier work as cited in patent US20250248432A1, “MIXTURE COMPRISING D-ALLULOSE AND TASTE MODIFYING COMPOUNDS” (SYMRISE AG, priority 2019, published 2025).

Details: relative to sucrose

SMILES: O=C(CO)C(O)C(O)C(O)CO [Allulose, D-allulose]
- sweetness intensity of sucrose: about 70%
